Assay results reported in US9920339B2, “Methods, reagents and cells for biosynthesizing compounds” (INVISTA North America S.á r.l., priority 2014, dated 2018).

Tests used:
Format in all cases: biochemical
[1] = target: T1, Mycobacterium marinum carboxylate reductase (SEQ ID NO: 2), enhanced by the gene product of sfp (Mycobacterium marinum, UniProt B2HN69); assay: carboxylate reductase enzyme activity assay, NADPH consumption at 340 nm; settings: SEQ ID NO 2 with sfp; 2 mM substrate, 10 mM MgCl2, 1 mM ATP, 1 mM NADPH, pH 7.5, room temperature, 20 min; absorbance at 340 nm
T1 construct: His-tag (N); made in house; host or cells: E. coli BL21[DE3], pET Duet
Protocol: (§1) A nucleotide sequence encoding a His-tag was added to the genes from Mycobacterium marinum, Mycobacterium smegmatis, Segniliparus rugosus, Mycobacterium massiliense, and Segniliparus rotundus that encode the carboxylate reductases of SEQ ID NOs: 2-4, 6 and 7, respectively (GenBank Accession Nos. ACC40567.1, ABK71854.1, EFV11917.1, EIV11143.1, and ADG98140.1, respectively) (see FIG. 10) such that N-terminal HIS tagged carboxylate reductases could be produced. Each of the modified genes was cloned into a pET Duet expression vector alongside a sfp gene encoding a His-tagged phosphopantetheine transferase from Bacillus subtilis, both under control of the T7 promoter. Each expression vector was transformed into a BL21[DE3] E. coli host along with the expression vectors from Example 3. Each resulting recombinant E. coli strain was cultivated at 37° C. in a 250 mL shake flask culture containing 50 mL LB media and antibiotic selection pressure, with shaking at 230 rpm. Each culture was induced overnight at 37° C. using an auto-induction media.
(§2) The pellet from each induced shake flask culture was harvested via centrifugation. Each pellet was resuspended and lysed via sonication. The cell debris was separated from the supernatant via centrifugation. The carboxylate reductases and phosphopantetheine transferase were purified from the supernatant using Ni-affinity chromatography, diluted 10-fold into 50 mM HEPES buffer (pH=7.5) and concentrated via ultrafiltration.
(§3) Enzyme activity (i.e., 5-hydroxypentanoate to 5-hydroxypentanal) assays were performed in triplicate in a buffer composed of a final concentration of 50 mM HEPES buffer (pH=7.5), 2 mM 5-hydroxypentanal, 10 mM MgCl2, 1 mM ATP, and 1 mM NADPH. Each enzyme activity assay reaction was initiated by adding purified carboxylate reductase and phosphopantetheine transferase or the empty vector control to the assay buffer containing the 5-hydroxypentanoate and then incubated at room temperature for 20 min. The consumption of NADPH was monitored by absorbance at 340 nm.
(§4) The N-terminal His-tagged carboxylate reductase of SEQ ID NO 2-4 and 7 (see Example 2 and FIG. 10) was assayed using glutarate methyl ester as substrate. The enzyme activity assay was performed in triplicate in a buffer composed of a final concentration of 50 mM HEPES buffer (pH=7.5), 2 mM glutarate methyl ester, 10 mM MgCl2, 1 mM ATP and 1 mM NADPH. The enzyme activity assay reaction was initiated by adding purified carboxylate reductase and phosphopantetheine transferase or the empty vector control to the assay buffer containing the glutarate semialdehyde and then incubated at room temperature for 20 min. The consumption of NADPH was monitored by absorbance at 340 nm.

[2] = test system: Mycobacterium smegmatis carboxylate reductase (SEQ ID NO: 3), enhanced by the gene product of sfp; assay: as above; settings: SEQ ID NO 3 with sfp; 2 mM substrate, 10 mM MgCl2, 1 mM ATP, 1 mM NADPH, pH 7.5, room temperature, 20 min; absorbance at 340 nm
Protocol: as §1, §2, §3, §4

[3] = test system: Segniliparus rugosus carboxylate reductase (SEQ ID NO: 4), enhanced by the gene product of sfp; assay: as above; settings: SEQ ID NO 4 with sfp; 2 mM substrate, 10 mM MgCl2, 1 mM ATP, 1 mM NADPH, pH 7.5, room temperature, 20 min; absorbance at 340 nm
Protocol: as §1, §2, §3, §4

[4] = test system: Mycobacterium massiliense carboxylate reductase (SEQ ID NO: 6), enhanced by the gene product of sfp; assay: as above; settings: SEQ ID NO 6 with sfp; 2 mM substrate, 10 mM MgCl2, 1 mM ATP, 1 mM NADPH, pH 7.5, room temperature, 20 min; absorbance at 340 nm
Protocol: as §1, with “media. […]” for “media.”
(§5) Enzyme activity (i.e., 5-hydroxypentanoate to 5-hydroxypentanal) assays were performed in triplicate in a buffer composed of a final concentration of 50 mM HEPES buffer (pH=7.5), 2 mM 5-hydroxypentanal, 10 mM MgCl2, 1 mM ATP, and 1 mM NADPH. […] The consumption of NADPH was monitored by absorbance at 340 nm.

[5] = test system: Segniliparus rotundus carboxylate reductase (SEQ ID NO: 7), enhanced by the gene product of sfp; assay: as above; settings: SEQ ID NO 7 with sfp; 2 mM substrate, 10 mM MgCl2, 1 mM ATP, 1 mM NADPH, pH 7.5, room temperature, 20 min; absorbance at 340 nm
Protocol: as §1
The pellet from each induced shake flask culture was harvested via centrifugation. Each pellet was resuspended and lysed via sonication. The cell debris was separated from the supernatant via centrifugation. […]
as §5
The N-terminal His-tagged carboxylate reductase of SEQ ID NO 7 (see Example 2 and FIG. 10) was assayed using glutarate semialdehyde as substrate. […] The consumption of NADPH was monitored by absorbance at 340 nm.
The N-terminal His-tagged carboxylate reductase of SEQ ID NO 2-4 and 7 (see Example 2 and FIG. 10) was assayed using glutarate methyl ester as substrate. […] The consumption of NADPH was monitored by absorbance at 340 nm.

[6] = target: T2, Escherichia coli pimeloyl-[acp] methyl ester methylesterase (SEQ ID NO: 1) (Escherichia coli, UniProt P13001); assay: pimeloyl-[acp] methyl ester methylesterase enzyme activity assay, glutaryl-CoA formation by LC-MS; settings: SEQ ID NO 1, 10 μM enzyme; 5 mM glutaryl-CoA methyl ester, 25 mM Tris.HCl pH 7.0, 30° C., 1 h
T2 construct: His-tag (C); made in house; host or cells: E. coli BL21[DE3], pET28b+
Protocol: A sequence encoding an C-terminal His-tag was added to the gene from Escherichia coli encoding the pimeloyl-[acp] methyl ester methylesterase of SEQ ID NO: 1 (see FIG. 10) such that C-terminal HIS tagged pimeloyl-[acp] methyl ester methylesterase could be produced. The resulting modified gene was cloned into a pET28b+ expression vector under control of the T7 promoter and the expression vector was transformed into a BL21[DE3] E. coli host. The resulting recombinant E. coli strain was cultivated at 37° C. in a 500 mL shake flask culture containing 100 mL LB media and antibiotic selection pressure, with shaking at 230 rpm. Each culture was induced overnight at 18° C. using 0.3 mM IPTG.
The pellet from each induced shake flask culture was harvested via centrifugation. Each pellet was resuspended and lysed via sonication. The cell debris was separated from the supernatant via centrifugation. The pimeloyl-[acp] methyl ester methylesterase was purified from the supernatant using Ni-affinity chromatography, buffer exchanged and concentrated into 20 mM HEPES buffer (pH=7.5) via ultrafiltration and stored at 4° C.
Enzyme activity assays converting glutaryl-CoA methyl ester to glutaryl-CoA were performed in triplicate in a buffer composed of a final concentration of 25 mM Tris.HCl buffer (pH=7.0) and 5 [mM] glutaryl-CoA methyl ester. […] The formation of glutaryl-CoA was quantified via LC-MS.

T1 sequence (B2HN69 whole entry): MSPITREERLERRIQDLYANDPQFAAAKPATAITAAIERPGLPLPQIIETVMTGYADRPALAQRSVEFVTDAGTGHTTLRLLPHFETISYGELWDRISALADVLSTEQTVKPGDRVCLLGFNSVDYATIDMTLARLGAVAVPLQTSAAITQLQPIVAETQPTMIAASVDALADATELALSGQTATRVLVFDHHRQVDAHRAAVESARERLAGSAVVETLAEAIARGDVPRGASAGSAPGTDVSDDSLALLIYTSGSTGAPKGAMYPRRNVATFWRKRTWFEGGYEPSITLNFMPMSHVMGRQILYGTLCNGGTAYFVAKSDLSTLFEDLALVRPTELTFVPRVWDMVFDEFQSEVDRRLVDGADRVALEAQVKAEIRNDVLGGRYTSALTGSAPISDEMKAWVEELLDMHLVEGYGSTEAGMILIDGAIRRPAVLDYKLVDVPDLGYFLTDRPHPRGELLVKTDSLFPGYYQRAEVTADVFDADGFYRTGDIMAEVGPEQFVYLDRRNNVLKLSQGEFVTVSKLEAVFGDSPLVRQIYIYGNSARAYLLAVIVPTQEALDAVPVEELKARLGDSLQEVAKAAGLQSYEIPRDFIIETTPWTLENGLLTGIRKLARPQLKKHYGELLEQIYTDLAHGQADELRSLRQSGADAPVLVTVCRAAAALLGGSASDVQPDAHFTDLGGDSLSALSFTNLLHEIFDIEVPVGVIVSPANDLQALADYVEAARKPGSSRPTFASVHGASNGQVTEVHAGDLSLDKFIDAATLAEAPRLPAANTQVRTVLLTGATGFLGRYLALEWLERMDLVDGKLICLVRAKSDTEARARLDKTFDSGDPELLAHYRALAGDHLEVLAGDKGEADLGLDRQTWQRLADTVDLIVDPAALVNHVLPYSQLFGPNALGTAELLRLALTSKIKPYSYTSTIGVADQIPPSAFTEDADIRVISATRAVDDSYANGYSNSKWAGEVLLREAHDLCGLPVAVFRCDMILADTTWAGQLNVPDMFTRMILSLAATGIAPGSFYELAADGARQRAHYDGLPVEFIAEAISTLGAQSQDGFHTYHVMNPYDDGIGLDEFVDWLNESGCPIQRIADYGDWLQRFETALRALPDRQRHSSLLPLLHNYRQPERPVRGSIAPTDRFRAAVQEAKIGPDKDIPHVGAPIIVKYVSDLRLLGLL
T2 sequence (P13001 whole entry): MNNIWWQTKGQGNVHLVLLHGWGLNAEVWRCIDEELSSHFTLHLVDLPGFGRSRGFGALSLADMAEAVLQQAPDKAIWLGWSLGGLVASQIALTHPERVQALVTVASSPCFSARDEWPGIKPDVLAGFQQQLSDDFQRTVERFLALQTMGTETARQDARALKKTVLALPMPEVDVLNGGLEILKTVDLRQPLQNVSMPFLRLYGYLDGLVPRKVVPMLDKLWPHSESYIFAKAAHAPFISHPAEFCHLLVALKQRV

O=C(O)CCCCO [5-hydroxypentanoate]
accepted: accepted as substrate as confirmed against the empty vector control [1] | accepted as substrate as confirmed against the empty vector control [2] | accepted as substrate as confirmed against the empty vector control [3] | accepted as substrate as confirmed against the empty vector control [4] | accepted as substrate as confirmed against the empty vector control [5]

COC(=O)CCCC(=O)SCCNC(=O)CCNC(=O)C(O)C(C)(C)COP(=O)(O)OP(=O)(O)OCC1OC(n2cnc3c(N)ncnc32)C(O)C1OP(=O)(O)O (stereo not drawn) [glutaryl-CoA methyl ester]
accepted: accepted as substrate, glutaryl-CoA synthesized as reaction product as confirmed via LC-MS [6]
